Test results: patent publication US9815796B2 (Merck Sharp & Dohme Corp., priority 2013, dated 2017)
Like-named read-outs stand apart in the source and are kept apart here.

Tests used:
Rhesus PDE2A3 = Rhesus PDE2A3 (Macaca mulatta, UniProt B3VTJ2); test: PDE2 fluorescence polarization (IMAP FP) inhibition assay, rhesus enzyme; assay type: biochemical, rhesus macaque
In short: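 IMAP FP (mP from parallel and perpendicular fluorescence against substrate-only control) was read ≥1 h after adding binding reagent. The preceding 60 min room-temperature reaction contained FAM-cAMP (50 nM) and cGMP (1 uM) in pH 7.2 Tris buffer with MgCl2 and DTT. Enzyme was supernatant of sonicated AD293 cells expressing rhesus PDE2A3; compounds were 3-fold titrated, DMSO 1% final.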

human PDE2A1 = human PDE2A1 (Homo sapiens (Human), UniProt O00408); test: IMAP FP PDE selectivity panel, human PDE2A1; assay type: biochemical
Chain of human PDE2A1 (O00408 other isoform, or with tags, fused parts or gaps): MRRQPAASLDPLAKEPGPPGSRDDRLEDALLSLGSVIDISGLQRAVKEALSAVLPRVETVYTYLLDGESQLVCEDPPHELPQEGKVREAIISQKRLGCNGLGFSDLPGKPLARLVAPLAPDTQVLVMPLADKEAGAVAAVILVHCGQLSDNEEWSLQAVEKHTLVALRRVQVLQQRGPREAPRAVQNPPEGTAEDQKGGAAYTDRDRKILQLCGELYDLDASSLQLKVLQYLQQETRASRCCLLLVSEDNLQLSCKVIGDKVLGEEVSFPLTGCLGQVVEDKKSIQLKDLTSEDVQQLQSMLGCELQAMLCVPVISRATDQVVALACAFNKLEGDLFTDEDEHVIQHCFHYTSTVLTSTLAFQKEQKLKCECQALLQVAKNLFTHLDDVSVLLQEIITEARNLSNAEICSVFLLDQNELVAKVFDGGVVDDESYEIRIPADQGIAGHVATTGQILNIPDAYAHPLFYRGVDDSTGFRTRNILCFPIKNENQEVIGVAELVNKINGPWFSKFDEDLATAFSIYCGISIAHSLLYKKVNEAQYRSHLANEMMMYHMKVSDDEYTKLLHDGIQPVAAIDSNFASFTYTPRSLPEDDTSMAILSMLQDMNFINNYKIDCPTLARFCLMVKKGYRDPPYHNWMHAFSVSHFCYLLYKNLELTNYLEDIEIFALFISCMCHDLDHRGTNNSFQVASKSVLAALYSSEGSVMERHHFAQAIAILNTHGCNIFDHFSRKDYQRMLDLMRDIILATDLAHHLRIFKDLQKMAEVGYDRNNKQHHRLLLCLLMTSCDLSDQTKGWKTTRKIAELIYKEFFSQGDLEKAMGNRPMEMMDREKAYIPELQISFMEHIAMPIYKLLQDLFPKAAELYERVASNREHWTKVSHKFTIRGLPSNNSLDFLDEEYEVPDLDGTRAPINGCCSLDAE
In short: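 IMAP FP format: substrate 50 nM FAM-cAMP plus 1000 nM cGMP, enzyme (insect-cell GST-tagged human PDE2A1) at ~20% conversion, 60 min reaction at room temperature. Apparent inhibition constants calculated from parallel/perpendicular fluorescence with KM 10,000 nM.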

[1] = Rhesus PDE2, Lab A, read-out: Rhesus PDE2 Ki (nM) - Lab A
[2] = Human PDE2, Lab A, read-out: Human PDE2 Ki (nM) - Lab A
[3] = Rhesus PDE2, Lab B, read-out: Rhesus PDE2 Ki (nM) - Lab B
[4] = Human PDE2, Lab B, read-out: Human PDE2 Ki (nM) - Lab B

Chain of Rhesus PDE2A3 (B3VTJ2 1-941): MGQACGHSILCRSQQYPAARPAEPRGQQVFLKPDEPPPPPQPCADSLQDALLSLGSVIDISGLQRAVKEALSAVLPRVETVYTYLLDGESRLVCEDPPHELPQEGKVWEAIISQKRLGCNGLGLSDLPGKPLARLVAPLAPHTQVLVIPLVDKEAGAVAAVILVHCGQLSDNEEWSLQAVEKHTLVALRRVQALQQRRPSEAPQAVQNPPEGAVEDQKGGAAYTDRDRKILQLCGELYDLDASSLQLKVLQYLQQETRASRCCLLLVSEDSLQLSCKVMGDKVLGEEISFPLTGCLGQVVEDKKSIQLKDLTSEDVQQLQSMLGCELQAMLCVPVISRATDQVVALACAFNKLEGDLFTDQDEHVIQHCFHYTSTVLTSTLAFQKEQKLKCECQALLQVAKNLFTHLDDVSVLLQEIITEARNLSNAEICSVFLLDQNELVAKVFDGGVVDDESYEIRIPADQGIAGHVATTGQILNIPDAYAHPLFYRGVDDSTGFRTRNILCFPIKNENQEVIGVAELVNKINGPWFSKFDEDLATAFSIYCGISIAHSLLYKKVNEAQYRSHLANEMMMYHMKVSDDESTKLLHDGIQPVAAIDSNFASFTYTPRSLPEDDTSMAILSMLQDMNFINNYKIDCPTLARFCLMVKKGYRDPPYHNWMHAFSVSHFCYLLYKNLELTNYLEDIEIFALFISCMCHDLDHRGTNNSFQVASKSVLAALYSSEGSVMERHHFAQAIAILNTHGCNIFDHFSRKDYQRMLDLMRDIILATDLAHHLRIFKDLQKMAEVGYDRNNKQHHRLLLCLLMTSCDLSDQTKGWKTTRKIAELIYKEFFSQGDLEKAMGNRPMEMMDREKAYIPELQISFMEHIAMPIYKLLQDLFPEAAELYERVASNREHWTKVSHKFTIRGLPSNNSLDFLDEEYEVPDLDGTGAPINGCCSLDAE

| Ki (Rhesus PDE2A3; [1]) [nM] | Ki (human PDE2A1; [2]) [nM] | Ki (Rhesus PDE2A3; [3]) [nM] | Ki (human PDE2A1; [4]) [nM] | Compound |
| --- | --- | --- | --- | --- |
| 7.8 | 5.6 | – | – | Cc1nc(C(=O)N[C@@H](c2ccc(OC(F)(F)F)c(F)c2)C(C)C)cc(=O)[nH]1 [Example 38, N-{(1R)-1-[3-fluoro-4-(trifluoromethoxy)phenyl]-2-methylpropyl}-2-methyl-6-oxo-1,6-dihydropyrimidine-4-carboxamide] |
| 17 | 8.8 | – | – | CC[C@@H](NC(=O)c1cc(=O)[nH]c(C)n1)c1ccc(OC(F)(F)F)c(F)c1 [Example 39, N-{(1R)-1-[3-fluoro-4-(trifluoromethoxy)phenyl]propyl}-2-methyl-6-oxo-1,6-dihydropyrimidine-4-carboxamide] |
| 19 | 9.3 | – | – | Cc1nc(C(=O)N[C@@H](c2ccc(OC(F)(F)F)c(F)c2)C2CC2)cc(=O)[nH]1 [Example 40, N-{(R)-cyclopropyl[3-fluoro-4-(trifluoromethoxy)phenyl]methyl}-2-methyl-6-oxo-1,6-dihydropyrimidine-4-carboxamide] |
| 9.2 | 5.2 | – | – | Cc1nc(C(=O)N[C@@H](c2ccc(SC(F)(F)F)cc2)C2CC2)cc(=O)[nH]1 [Example 41, N-[(R)-cyclopropyl{4-[(trifluoromethyl)sulfanyl]phenyl}methyl]-2-methyl-6-oxo-1,6-dihydropyrimidine-4-carboxamide] |
| 72 | 31 | – | – | Cc1nc(C(=O)NC(C)c2ccc(C3CC3)cc2)cc(=O)[nH]1 (stereo not shown) [Example 42, N-[1-(4-cyclopropylphenyl)ethyl]-2-methyl-6-oxo-1,6-dihydropyrimidine-4-carboxamide] |
| 20 | 18 | 14 | 15 | Cc1nc(C(=O)NC(C)(C)c2ccc(C(F)(F)F)c(F)c2)cc(=O)[nH]1 [Example 43, N-{1-[3-fluoro-4-(trifluoromethyl)phenyl]-1-methylethyl}-2-methyl-6-oxo-1,6-dihydropyrimidine-4-carboxamide] |
| 17 | 10 | 16 | 16 | Cc1nc(C(=O)NC2(c3ccc(C(F)(F)F)c(F)c3)CC2)cc(=O)[nH]1 [Example 44, N-{1-[3-fluoro-4-(trifluoromethyl)phenyl]cyclopropyl}-2-methyl-6-oxo-1,6-dihydropyrimidine-4-carboxamide] |
| 52 | 35 | – | – | Cc1nc(C(=O)N[C@H](C)c2ccc(CC(F)(F)F)cc2)cc(=O)[nH]1 [Example 45, 2-methyl-6-oxo-N-{(1R)-1-[4-(2,2,2-trifluoroethyl)phenyl]ethyl}-1,6-dihydropyrimidine-4-carboxamide] |
| 65 | 72 | – | – | Cc1nc(C(=O)N[C@H](C)c2ccc(C(F)(F)F)c(C)c2)cc(=O)[nH]1 [Example 46, 2-methyl-N-{(1R)-1-[3-methyl-4-(trifluoromethyl)phenyl]ethyl}-6-oxo-1,6-dihydropyrimidine-4-carboxamide] |
| 41 | 32 | – | – | Cc1nc(C(=O)N[C@H](C)c2ccc(C(F)(F)F)c(Cl)c2)cc(=O)[nH]1 [Example 47, N-{(1R)-1-[3-chloro-4-(trifluoromethyl)phenyl]ethyl}-2-methyl-6-oxo-1,6-dihydropyrimidine-4-carboxamide] |
| 235 | 127 | – | 80 | Cc1nc(C(=O)NC(C)(C)c2ccc(OC(F)(F)F)c(F)c2)cc(=O)[nH]1 [Example 48, N-{1-[3-fluoro-4-(trifluoromethoxy)phenyl]-1-methylethyl}-2-methyl-6-oxo-1,6-dihydropyrimidine-4-carboxamide] |
| 79 | 45 | – | – | Cc1nc(C(=O)NC2(c3ccc(SC(F)(F)F)cc3)CCC2)cc(=O)[nH]1 [Example 49, 2-methyl-6-oxo-N-(1-{4-[(trifluoromethyl)sulfanyl]phenyl}cyclobutyl)-1,6-dihydropyrimidine-4-carboxamide] |
| 8 | – | 11 | 8.1 | Cc1nc(C(=O)N[C@@H](c2ccc(C3CC3)cc2)C2CC2)cc(=O)[nH]1 [Example 50, N-[(R)-cyclopropyl(4-cyclopropylphenyl)methyl]-2-methyl-6-oxo-1,6-dihydropyrimidine-4-carboxamide] |
| 18 | ~6.1 | 18 | 20 | CC[C@@H](NC(=O)c1cc(=O)[nH]c(C)n1)c1ccc(S(F)(F)(F)(F)F)cc1 [Example 51, 2-methyl-6-oxo-N-{(1R)-1-[4-(pentafluoro-λ^6-sulfanyl)phenyl]propyl}-1,6-dihydropyrimidine-4-carboxamide] |
| 5.1 | – | 6 | 6.4 | Cc1nc(C(=O)N[C@@H](c2ccc(S(F)(F)(F)(F)F)cc2)C(C)C)cc(=O)[nH]1 [Example 52, 2-methyl-N-{(1R)-2-methyl-1-[4-(pentafluoro-λ^6-sulfanyl)phenyl]propyl}-6-oxo-1,6-dihydropyrimidine-4-carboxamide] |
| 3.6 | 2.8 | – | – | Cc1nc(C(=O)N[C@@H](c2ccc(SC(F)(F)F)c(F)c2)C(C)C)cc(=O)[nH]1 [Example 53, N-[(1R)-1-{3-fluoro-4-[(trifluoromethyl)sulfanyl]phenyl}-2-methylpropyl]-2-methyl-6-oxo-1,6-dihydropyrimidine-4-carboxamide] |
| 9.7 | 5.5 | – | – | CC[C@@H](NC(=O)c1cc(=O)[nH]c(C)n1)c1ccc(SC(F)(F)F)c(F)c1 [Example 54, N-[(1R)-1-{3-fluoro-4-[(trifluoromethyl)sulfanyl]phenyl}propyl]-2-methyl-6-oxo-1,6-dihydropyrimidine-4-carboxamide] |
| 11 | 7.8 | – | – | Cc1nc(C(=O)N[C@@H](c2ccc(SC(F)(F)F)c(F)c2)C2CC2)cc(=O)[nH]1 [Example 55, N-[(R)-cyclopropyl{3-fluoro-4-[(trifluoromethyl)sulfanyl]phenyl}methyl]-2-methyl-6-oxo-1,6-dihydropyrimidine-4-carboxamide] |
| – | – | 5.8 | 3.9 | Cc1nc(C(=O)N[C@@H](c2ccc(OC(F)(F)F)cc2)C(C)(C)C)cc(=O)[nH]1 [Example 57, (R)-N-(2,2-dimethyl-1-(4-(trifluoromethoxy)phenyl)propyl)-2-methyl-6-oxo-1,6-dihydropyrimidine-4-carboxamide] |
| – | – | 2.5 | 1.7 | Cc1nc(C(=O)N[C@@H](c2ccc(SC(F)(F)F)cc2)C(C)(C)C)cc(=O)[nH]1 [Example 58, (R)-N-(2,2-dimethyl-1-(4-((trifluoromethyl)thio)phenyl)propyl)-2-methyl-6-oxo-1,6-dihydropyrimidine-4-carboxamide] |
| – | – | 6.4 | 4.5 | Cc1nc(C(=O)N[C@@H](c2ccc(C(F)(F)F)c(F)c2)C(C)(C)C)cc(=O)[nH]1 [Example 59] |
| – | – | 4.8 | 2.8 | Cc1nc(C(=O)N[C@@H](c2ccc(OC(F)(F)F)c(F)c2)C(C)(C)C)cc(=O)[nH]1 [Example 60, (R)-N-(1-(3-fluoro-4-(trifluoromethoxy)phenyl)-2,2-dimethylpropyl)-2-methyl-6-oxo-1,6-dihydropyrimidine-4-carboxamide] |
| – | – | 10 | 8.2 | Cc1nc(C(=O)N[C@@H](c2ccc(CC(F)(F)F)cc2)C(C)(C)C)cc(=O)[nH]1 [Example 61, (R)-N-(2,2-dimethyl-1-(4-(2,2,2-trifluoroethyl)phenyl)propyl)-2-methyl-6-oxo-1,6-dihydropyrimidine-4-carboxamide] |
